The subject of assay [1] is Enterococcus faecalis. As to the kind of experiment: Minimum inhibitory concentration against growth of patient isolated vancomycin-resistant Enterococcus faecalis ATCC 51299 (VRE2). It counts as functional.
The test system of assay [2] is Staphylococcus aureus. Put plainly: Minimum inhibitory concentration against growth of patient isolated methicillin-resistant Staphylococcus aureus (MRSA2). The assay is classed as functional.
For a further assay, the system named is Escherichia coli. Put plainly: Minimum inhibitory concentration against growth of […] Escherichia coli […]. The assay is classed as functional.
The test system of assay [3] is Staphylococcus aureus. Put plainly: Minimum inhibitory concentration against growth of patient isolated methicillin-resistant Staphylococcus aureus (MRSA1). It counts as functional.
For the next assay, the system named is Enterococcus faecium. As to the kind of experiment: Minimum inhibitory concentration against growth of patient isolated vancomycin-resistant Enterococcus faecium (VRE1). The assay is classed as functional.
The subject of assay [4] is Staphylococcus aureus. Put plainly: Minimum inhibitory concentration against growth of patient isolated methicillin-resistant Staphylococcus aureus (MRSA2); no inhibition. The assay is classed as functional, organism-based.
Assay [5] relates to Enterococcus faecalis. Put plainly: Minimum inhibitory concentration against growth of patient isolated vancomycin-resistant Enterococcus faecalis ATCC 51299 (VRE2); no inhibition. It counts as functional, organism-based.

≈ marks a conversion by molar mass, not a printed value. Calls of active or inactive are those of the source. The calls are words filed in the database; no cut-off is given here.

Consider `CC(C)=CCC12CCN(C)C1Nc1ccccc12` (configuration not stated), for which the MIC against Enterococcus faecalis [1] came to 40 µg/mL (≈ 165 µM); against Staphylococcus aureus [2] it was 40 µg/mL (≈ 165 µM); in the assay with Escherichia coli, 160 µg/mL (≈ 660 µM); in the assay with Staphylococcus aureus [3], 40 µg/mL (≈ 165 µM); with Enterococcus faecium it was 20 µg/mL (≈ 82.5 µM).
For `CC(C)=CCN1c2ccccc2C2(CC=C(C)C)CCN(C=O)C12` (configuration not stated), the MIC result in the assay on Staphylococcus aureus [4] and in the assay on Enterococcus faecalis [5] was “inactive” throughout.
